Source: PubChem BioAssay AID1963964 (Molecular Pharmacology Branch, DTP, NCI, 2024)

System: 997726-040-R-J2-PDC tumor spheroids, viability
Assay: Anticancer human tumor 997726-040-R-J2-PDC patient-derived squamous cell lung carcinoma cell line growth inhibition [PI3K]
Conditions: spheroids with HUVEC and MSC; for IC50: curve of first compound; for viability, T/C: stronger effect = lower value; active means viability on the fitted dose curve at most 10% of control; inactive means the rest
Text: Combinatorial screen of targeted agents with the PI3K inhibitors inavolisib, alpelisib, duvelisib, and copanlisib in multi-cell type tumor spheroids
A high-throughput screen of multi-cell type tumor spheroids was designed to identify active combinations of targeted small molecules and PI3K pathway inhibitors. Complex spheroids include a stromal component modeled by human endothelial cells (HUVEC) and fibroblasts modeled by human mesenchymal stem cells (MSCs). The concentration ranges selected for each drug and investigational agent were based upon clinically achievable concentrations if the clinical Cmax of the agent was known.
Compounds. The drugs and investigational agents: inavolisib (NSC800729), alpelisib (NSC765974), duvelisib (NSC772469), copanlisib (NSC816437), ipatasertib (NSC767898), afuresertib (NSC778305), talazoparib (NSC767125), sapanisertib (NSC764658), selumetinib (NSC741078), tovorafenib (DAY101, NSC766906), vemurafenib (NSC761431), ravoxertinib (NSC781343), sotorasib (NSC818433), MRTX1133 (NSC 836407), abemaciclib (NSC 768073), palbociclib (NSC758247), venetoclax (NSC 766270), SY5609 (NSC837396), enzalutamide (NSC755605), and darolutamide (NSC825331), were obtained from the National Cancer Institute (NCI) Developmental Therapeutics Program Chemical Repository. The FDA-approved anticancer drug set is available from the NCI Developmental Therapeutics Program. […] The stock solutions were prepared in dimethyl sulfoxide (DMSO, Sigma-Aldrich, St. Louis, MO, cat. D2650) at 800-fold the tested concentration and stored at -70 degrees C prior to their use. All drugs and investigational agents were tested over a range starting from a high concentration at or near the clinical Cmax and decreasing in half-log increments. If the clinical Cmax for an agent had not been determined, the highest concentration tested was 10 microM.
Cell Culture. All cells were maintained in an incubator at 37 degrees C and 5% CO2 with 95% humidity. The PDC lines were cultured according to standard operating procedures established by the NCI PDMR (https://pdmr.cancer.gov/sops/default.htm). All PDCs were thawed and cultured in Matrigel-coated flasks prepared with a working solution of 1X Ham's F-12 nutrient mix, without supplementation (Invitrogen, Waltham, MA, cat. 11765054), 100 U/mL penicillin-streptomycin (Invitrogen, cat. 15140122), and 2.5% Matrigel (Corning Inc., Corning, NY, cat. 354248) for the first three passages. The 354836-022-R-J1-PDC, 475296-252-R-J1-PDC, and 997726-040-R-J2-PDC lines were cultured in 6A media, which includes advanced DMEM/F-12 (Thermo Fisher Scientific, cat. 12634028), 10 mM HEPES (Thermo Fisher Scientific, cat. 15630080), 1X GlutaMAX supplement (Thermo Fisher Scientific, cat. 35050061), 0.1 mg/mL primocin (InvivoGen, San Diego, CA, cat. ant-pm-2), 10% defined fetal bovine serum, heat inactivated (HyClone Laboratories Inc., Logan, UT, cat. SH30070.03HI), 50% L-WRN conditioned media (ATCC, cat. CRL-3276), 1.25 mM N-Acetyl-L-cysteine (Sigma-Aldrich, cat. A9165), 10 mM nicotinamide (Sigma-Aldrich, cat. N0636), 1X B-27 supplement (Thermo Fisher Scientific, cat. 17504044), 1X N-2 supplement (Thermo Fisher Scientific, cat. 17502048), and 10 microM Y-27632 dihydrochloride (Tocris Bioscience, Bristol, United Kingdom, cat. 1254). The 624824-186-R-J2-PDC line was cultured in 6C/Colon 1B media, which includes all 6A media components plus 50 ng/mL human EGF recombinant protein (Thermo Fisher Scientific, cat. PHG0311). […]

[1] = second compound 0.00316 µM, first compound 0.0316 µM
[2] = second compound 0.00316 µM, first compound 0.1 µM
[3] = second compound 0.00316 µM, first compound 0.316 µM
[4] = second compound 0.00316 µM, first compound 1 µM
[5] = second compound 0.00316 µM, first compound 3.16 µM
[6] = second compound 0.00316 µM, first compound 10 µM
[7] = second compound 0.01 µM, first compound 0.0316 µM
[8] = second compound 0.01 µM, first compound 0.1 µM
[9] = second compound 0.01 µM, first compound 0.316 µM
[10] = second compound 0.01 µM, first compound 1 µM
[11] = second compound 0.01 µM, first compound 3.16 µM
[12] = second compound 0.01 µM, first compound 10 µM
[13] = second compound 0.0316 µM, first compound 0.0316 µM
[14] = second compound 0.0316 µM, first compound 0.1 µM
[15] = second compound 0.0316 µM, first compound 0.316 µM
[16] = second compound 0.0316 µM, first compound 1 µM
[17] = second compound 0.0316 µM, first compound 3.16 µM
[18] = second compound 0.0316 µM, first compound 10 µM
[19] = second compound 0.1 µM, first compound 0.0316 µM
[20] = second compound 0.1 µM, first compound 0.1 µM
[21] = second compound 0.1 µM, first compound 0.316 µM
[22] = second compound 0.1 µM, first compound 1 µM
[23] = second compound 0.1 µM, first compound 3.16 µM
[24] = second compound 0.1 µM, first compound 10 µM
[25] = second compound 0.316 µM, first compound 0.0316 µM
[26] = second compound 0.316 µM, first compound 0.1 µM
[27] = second compound 0.316 µM, first compound 0.316 µM
[28] = second compound 0.316 µM, first compound 1 µM
[29] = second compound 0.316 µM, first compound 3.16 µM
[30] = second compound 0.316 µM, first compound 10 µM
[31] = second compound 1 µM, first compound 0.0316 µM
[32] = second compound 1 µM, first compound 0.1 µM
[33] = second compound 1 µM, first compound 0.316 µM
[34] = second compound 1 µM, first compound 1 µM
[35] = second compound 1 µM, first compound 3.16 µM
[36] = second compound 1 µM, first compound 10 µM
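Further: spheroids exposed to compounds for seven days before readout.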

Cn1nccc1Nc1nccc(-c2ccn(C(CO)c3ccc(Cl)c(F)c3)c(=O)c2)n1 (centres undefined) + COc1c(OCCCN2CCOCC2)ccc2c3n(c(=NC(=O)c4cnc(N)nc4)nc12)CCN3
< 0.0316 µM: IC50 (second compound 0.0316 µM) | IC50 (second compound 0.1 µM) | IC50 (second compound 0.316 µM) | IC50 (second compound 1 µM)
0.0408 µM: IC50 (second compound 0.01 µM)
active: viability, T/C [25] 5.76% | viability, T/C [26] 4.79% | viability, T/C [27] 5.29% | viability, T/C [28] 3.62% | viability, T/C [29] 3.85% | viability, T/C [30] 0.65% | viability, T/C [31] 0.97% | viability, T/C [32] 1.38% | viability, T/C [33] 1.3% | viability, T/C [34] 0.75% | viability, T/C [35] 0.59% | viability, T/C [36] 0.31%
0.299 µM: IC50 (second compound 0.00316 µM)
inactive: viability, T/C [1] 70.4% | viability, T/C [2] 66.3% | viability, T/C [3] 49.1% | viability, T/C [4] 51.9% | viability, T/C [5] 44.8% | viability, T/C [6] 49.8% | viability, T/C [7] 52% | viability, T/C [8] 47.7% | viability, T/C [9] 40.3% | viability, T/C [10] 43.9% | viability, T/C [11] 42.1% | viability, T/C [12] 34.2% | viability, T/C [13] 37.3% | viability, T/C [14] 35.5% | viability, T/C [15] 26.8% | viability, T/C [16] 27.5% | viability, T/C [17] 27.3% | viability, T/C [18] 25.2% | viability, T/C [19] 20.4% | viability, T/C [20] 20.2% | viability, T/C [21] 18.3% | viability, T/C [22] 19% | viability, T/C [23] 20% | viability, T/C [24] 11.8%

C#Cc1c(F)ccc2cc(O)cc(-c3ncc4c(N5CC6CCC(C5)N6)nc(OCC56CCCN5CC(F)C6)nc4c3F)c12 (centres undefined) + COc1c(OCCCN2CCOCC2)ccc2c3n(c(=NC(=O)c4cnc(N)nc4)nc12)CCN3
active: viability, T/C [25] 4.68% | viability, T/C [26] 5.65% | viability, T/C [27] 4.53% | viability, T/C [28] 4.98% | viability, T/C [29] 4.96% | viability, T/C [30] 3.97% | viability, T/C [31] 1.7% | viability, T/C [32] 1.08% | viability, T/C [33] 1.16% | viability, T/C [34] 0.96% | viability, T/C [35] 0.92% | viability, T/C [36] 0.86%
inactive: viability, T/C [1] 73.6% | viability, T/C [2] 74.5% | viability, T/C [3] 69.3% | viability, T/C [4] 76% | viability, T/C [5] 72% | viability, T/C [6] 58.5% | viability, T/C [7] 63.7% | viability, T/C [8] 57.6% | viability, T/C [9] 55.5% | viability, T/C [10] 57.2% | viability, T/C [11] 51.3% | viability, T/C [12] 47.1% | viability, T/C [13] 36.1% | viability, T/C [14] 35% | viability, T/C [15] 30% | viability, T/C [16] 32.6% | viability, T/C [17] 28.7% | viability, T/C [18] 27.7% | viability, T/C [19] 23% | viability, T/C [20] 21.7% | viability, T/C [21] 20.9% | viability, T/C [22] 22.2% | viability, T/C [23] 20.1% | viability, T/C [24] 17.6%
< 0.0316 µM: IC50 (second compound 0.0316 µM) | IC50 (second compound 0.1 µM) | IC50 (second compound 0.316 µM) | IC50 (second compound 1 µM)
> 10 µM: IC50 (second compound 0.00316 µM)
5.11 µM: IC50 (second compound 0.01 µM)
